Test results reported in ChEMBL document CHEMBL5550126, “Identification of naphthalimide-derivatives as novel PBD-targeted polo-like kinase 1 inhibitors with efficacy in drug-resistant lung cancer cells” (Eur J Med Chem, 2024).
Active and inactive are the calls of the source. No cut-off for these calls is given here.

Columns and labels:
A549/CDDP [1] = assay: Induction of cell cycle arrest at G2/M phase in human A549/DDP cells at 0 to 15 uM measured after 48 hrs by RNase A/PI staining based flow cytometry analysis; type: functional; conditions: dose 0-15 µM
[2] = Binding affinity to cysteine in PBS assessed as increase in fluorogenic response at 5 uM by UV lamp irradiation/fluorescence spectrophotometer
A549/CDDP [3] = assay: Antitumor activity against human A549/DDP cells assessed as male BALB/c nude mouse assessed as tumor growth inhibition at 50 mg/kg, ip administered every 2 days for 32 days and measured 3 times a week relative to control; type: functional; conditions: 768 h, time 32 day, read-out: TGI
[4] = biological target: T1, Serine/threonine-protein kinase PLK1 (Homo sapiens, UniProt P53350); assay: Binding affinity to recombinant PLK1 (unknown origin) assessed as dissociation constant by SPR analysis
T1 sequence (P53350 whole entry): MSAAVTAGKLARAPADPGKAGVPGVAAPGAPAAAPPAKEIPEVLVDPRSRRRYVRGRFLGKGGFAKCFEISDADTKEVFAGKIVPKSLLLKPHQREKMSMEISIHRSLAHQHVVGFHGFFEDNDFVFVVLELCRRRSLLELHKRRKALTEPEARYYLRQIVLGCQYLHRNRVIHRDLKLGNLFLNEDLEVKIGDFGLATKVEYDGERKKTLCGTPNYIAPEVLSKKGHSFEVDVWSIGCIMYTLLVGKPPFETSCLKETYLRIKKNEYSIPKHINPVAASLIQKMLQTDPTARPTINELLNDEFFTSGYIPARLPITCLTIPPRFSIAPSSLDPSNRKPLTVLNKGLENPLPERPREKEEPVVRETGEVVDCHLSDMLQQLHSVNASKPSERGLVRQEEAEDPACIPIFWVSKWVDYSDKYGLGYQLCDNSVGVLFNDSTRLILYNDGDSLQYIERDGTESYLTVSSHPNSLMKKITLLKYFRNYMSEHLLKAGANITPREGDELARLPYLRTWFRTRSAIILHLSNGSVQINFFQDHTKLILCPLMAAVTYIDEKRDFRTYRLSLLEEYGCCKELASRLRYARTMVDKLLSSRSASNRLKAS

[5] = GSH reactivity of compound in PBS assessed as increase in fluorogenic response at 5 uM measured after 0 to 24 hrs by fluorescence spectrophotometer; type: physicochemical; conditions: buffer, time 0-24 hrs
T-24 = assay: Anticancer activity against human T24 cells assessed as inhibition of cell growth incubated for 48 hrs by crystal violet staining based analysis; type: functional; conditions: T-24, 48 h
[6] = Toxicity in male BALB/c nude mouse xenografted with human A549/DDP cells assessed as change in heart index at 30 mg/kg, ip administered every 2 days for 32 days; type: organism-based, A549/CDDP; conditions: in vivo, 768 h, time 32 day
[7] = Toxicity in male BALB/c nude mouse xenografted with human gefitinib resistant NCI-H1975 cells assessed as lung damage at 30 mg/kg, po administered every 2 days for 20 days and measured 3 times a week by H and E staining based analysis; type: organism-based; conditions: in vivo, 480 h, time 20 day
A549 [8] = assay: Induction of mitotic catastrophe in human A549 cells assessed as downregulation of CDK1-cyclin B1 complex protein expression at 1.5 to 6 uM measured after 48 hrs by Western blot analysis; type: functional, cell-based; conditions: dose 1.5-6 µM
MCF7 = assay: Anticancer activity against human MCF7 cells assessed as inhibition of cell growth incubated for 48 hrs by crystal violet staining based analysis; type: functional; conditions: MCF7, 48 h
[9] = Toxicity in male BALB/c nude mouse xenografted with human gefitinib resistant NCI-H1975 cells assessed as reduction in body weight at 30 mg/kg, po administered every 2 days for 20 days and measured 3 times a week; type: organism-based; conditions: in vivo, 480 h, time 20 day
SK-OV-3 = assay: Anticancer activity against human SK-OV-3 cells assessed as inhibition of cell growth incubated for 48 hrs by crystal violet staining based analysis; type: functional; conditions: SK-OV-3, 48 h
A549/CDDP [10] = assay: Disruption of redox homeostasis in human A549/DDP cells assessed as induction of cell death; type: functional, cell-based
A549/CDDP [11] = assay: Antitumor activity against human A549/DDP cells assessed as male BALB/c nude mouse assessed as tumor growth inhibition at 30 mg/kg, ip administered every 2 days for 32 days and measured 3 times a week relative to control; type: functional; conditions: 768 h, time 32 day, read-out: TGI
[12] = Toxicity in male BALB/c nude mouse xenografted with human gefitinib resistant NCI-H1975 cells assessed as kidney damage at 30 mg/kg, po administered every 2 days for 20 days and measured 3 times a week by H and E staining based analysis; type: organism-based; conditions: in vivo, 480 h, time 20 day
[13] = Toxicity in male BALB/c nude mouse xenografted with human A549/DDP cells assessed as heart damage at 30 to 50 mg/kg, ip administered every 2 days for 32 days by H and E staining based analysis; type: organism-based, A549/CDDP; conditions: in vivo, 768 h, dose 30-50 mg/kg, time 32 day
[14] = biological target: T1, Serine/threonine-protein kinase PLK1; assay: Inhibition of PLK1 in human A549/DDP cells assessed as reduction in protein abundance measured after 48 hrs by Western blot analysis; type: cell-based
A549 [15] = assay: Induction of morphological changes in human A549 cells assessed as increase in mitotic catastrophe in nucleus at 0 to 3 uM measured after 48 hrs by immunofluorescence based laser confocal microscopic analysis; type: functional, cell-based; conditions: dose 0-3 µM
[16] = Toxicity in male BALB/c nude mouse xenografted with human A549/DDP cells assessed as kidney damage at 30 to 50 mg/kg, ip administered every 2 days for 32 days by H and E staining based analysis; type: organism-based, A549/CDDP; conditions: in vivo, 768 h, dose 30-50 mg/kg, time 32 day
A549/CDDP [17] = assay: Antitumor activity against human A549/DDP cells assessed as male BALB/c nude mouse assessed as median survival time at 30 mg/kg, ip administered every 2 days for 32 days (reference value: 38 days); type: functional; conditions: time 32 day
[18] = GSH reactivity in human A549/DDP cells assessed as increase in fluorescence intensity measured after 48 hrs; type: ADME, cell-based; conditions: dose 0-9 µM
A549 [19] = assay: Disruption of PLK1-PRC1 protein protein interaction in human A549 cells assessed as reduction in amount of PLK1 captured by PRC1 antibody at 6 uM measured after 48 hrs by Co-IP analysis; type: cell-based
[20] = biological target: T1, Serine/threonine-protein kinase PLK1; assay: Inhibition of PLK1 in human A549/DDP cells assessed as reduction in PLK1 phosphorylation measured after 48 hrs by Western blot analysis; type: cell-based
[21] = Toxicity in male BALB/c nude mouse xenografted with human A549/DDP cells assessed as change in kidney index at 30 to 50 mg/kg, ip administered every 2 days for 32 days; type: organism-based, A549/CDDP; conditions: in vivo, 768 h, dose 30-50 mg/kg, time 32 day
A549/CDDP [22] = assay: Effect on p-CDK2 protein expression in human A549/DDP cells assessed as effect on protein abundance at 0 to 6 uM measured after 48 hrs by Western blot analysis; type: functional, cell-based; conditions: dose 0-6 µM
A549 [23] = assay: Anticancer activity against human A549 cells assessed as inhibition of cell growth incubated for 48 hrs by crystal violet staining based analysis; type: functional; conditions: A549, 48 h
A549 [24] = assay: Induction of mitotic catastrophe in human A549 cells assessed as reduction in PRC1 recruitment by PLK1 in anaphase at 1.5 to 3 uM measured after 48 hrs by immunostaining based laser confocal microscopic analysis; type: functional, cell-based; conditions: dose 1.5-3 µM

For `CN(C)CCN1C(=O)c2cccc3c(S(=O)(=O)NCc4ccc(F)cc4)ccc(c23)C1=O`, the Activity (A549/CDDP [1]) was “Active”, the Activity [2] was “inactive” and the inhibition in vivo at 50 mg/kg (A549/CDDP [3]) was 62%. The Kd [4] was 0.29 µM, the Drug metabolism [5] was “Metabolite_Detected” and the IC50 (T-24) was 2.9 µM. For the same molecule, the Activity [6] was “Toxic”, the Activity [7] was “Non-Toxic” and the Activity (A549 [8]) was “Active”. For the same molecule, the IC50 (MCF7) was 6.54 µM, the Activity [9] was “Non-Toxic” and the IC50 (SK-OV-3) was 2.84 µM. The Activity (A549/CDDP [10]) was “Active”, the inhibition in vivo at 30 mg/kg (A549/CDDP [11]) was 42% and the Activity [12] was “Non-Toxic”. The Activity [13] was “Non-Toxic”, the inhibition [14] was “Active” and the Activity (A549 [15]) was “Active”. For the same molecule, the Activity [16] was “Non-Toxic”, the MSD (A549/CDDP [17]) was 53 days and the Drug metabolism [18] was “Metabolite_Detected”. For the same molecule, the Activity (A549 [19]) was “Active”, the inhibition [20] was “Active” and the Activity [21] was “Non-Toxic”. For the same molecule, the Activity (A549/CDDP [22]) was “Active”, the IC50 (A549 [23]) was 10.6 µM and the Activity (A549 [24]) was “Active”.
